Data published in ChEMBL document CHEMBL3351989, “Structure-activity relationship and interaction studies of new SIRT1 inhibitors with the scaffold of 3-(furan-2-yl)-[1,2,4]triazolo[3,4-b][1,3,4]thiadiazole” (Bioorg Med Chem Lett, 2014).

What was measured:
[1] = biological target: T1, NAD-dependent protein deacetylase sirtuin-1 (Homo sapiens, UniProt Q96EB6); experiment: Inhibition of hexa-His-tagged recombinant human SIRT1 expressed in Escherichia coli BL21(DE3) using AMC-labeled Arg-His-Lys-Lys(ac) as substrate assessed as inhibition of deacetylation of peptide after 45 mins by fluorescence assay
T1 sequence (Q96EB6 whole entry): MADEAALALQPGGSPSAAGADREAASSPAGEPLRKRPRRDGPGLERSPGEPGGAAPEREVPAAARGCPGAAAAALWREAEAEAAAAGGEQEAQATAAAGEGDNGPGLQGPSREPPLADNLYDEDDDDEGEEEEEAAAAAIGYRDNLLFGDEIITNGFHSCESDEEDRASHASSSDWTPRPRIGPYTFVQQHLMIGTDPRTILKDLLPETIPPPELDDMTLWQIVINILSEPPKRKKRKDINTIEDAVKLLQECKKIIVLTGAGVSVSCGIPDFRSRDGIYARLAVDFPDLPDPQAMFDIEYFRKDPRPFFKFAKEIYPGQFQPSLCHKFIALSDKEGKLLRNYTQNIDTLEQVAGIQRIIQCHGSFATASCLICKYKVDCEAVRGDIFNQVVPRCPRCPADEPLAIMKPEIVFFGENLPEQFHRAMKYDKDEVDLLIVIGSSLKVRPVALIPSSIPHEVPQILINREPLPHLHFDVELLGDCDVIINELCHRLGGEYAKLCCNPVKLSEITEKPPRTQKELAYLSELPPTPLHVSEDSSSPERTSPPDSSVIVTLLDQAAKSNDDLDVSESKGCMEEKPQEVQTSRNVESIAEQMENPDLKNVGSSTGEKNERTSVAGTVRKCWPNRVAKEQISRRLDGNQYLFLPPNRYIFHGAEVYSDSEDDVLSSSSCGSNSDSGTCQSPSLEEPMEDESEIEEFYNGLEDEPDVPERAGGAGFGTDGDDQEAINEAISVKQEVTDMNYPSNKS

[2] = biological target: T2, NAD-dependent protein deacetylase sirtuin-1 (Homo sapiens) (UniProt Q96EB6); experiment: Inhibition of SIRT1-mediated deacetylation of p53 in human MCF7 cells at 1.2 to 100 uM after 6 hrs by Western blotting; assay type: cell-based
T2 sequence (whole entry): T1 sequence (Q96EB6 whole entry)

[3] = biological target: T3, NAD-dependent protein deacetylase sirtuin-1 (Homo sapiens, UniProt Q96EB6, F414A); experiment: Inhibition of human SIRT1 F414A mutant expressed in Escherichia coli BL21(DE3) using AMC-labeled Arg-His-Lys-Lys(ac) as substrate assessed as inhibition of deacetylation of peptide after 45 mins by fluorescence assay
T3 sequence (Q96EB6 2-747 F414A limits assumed): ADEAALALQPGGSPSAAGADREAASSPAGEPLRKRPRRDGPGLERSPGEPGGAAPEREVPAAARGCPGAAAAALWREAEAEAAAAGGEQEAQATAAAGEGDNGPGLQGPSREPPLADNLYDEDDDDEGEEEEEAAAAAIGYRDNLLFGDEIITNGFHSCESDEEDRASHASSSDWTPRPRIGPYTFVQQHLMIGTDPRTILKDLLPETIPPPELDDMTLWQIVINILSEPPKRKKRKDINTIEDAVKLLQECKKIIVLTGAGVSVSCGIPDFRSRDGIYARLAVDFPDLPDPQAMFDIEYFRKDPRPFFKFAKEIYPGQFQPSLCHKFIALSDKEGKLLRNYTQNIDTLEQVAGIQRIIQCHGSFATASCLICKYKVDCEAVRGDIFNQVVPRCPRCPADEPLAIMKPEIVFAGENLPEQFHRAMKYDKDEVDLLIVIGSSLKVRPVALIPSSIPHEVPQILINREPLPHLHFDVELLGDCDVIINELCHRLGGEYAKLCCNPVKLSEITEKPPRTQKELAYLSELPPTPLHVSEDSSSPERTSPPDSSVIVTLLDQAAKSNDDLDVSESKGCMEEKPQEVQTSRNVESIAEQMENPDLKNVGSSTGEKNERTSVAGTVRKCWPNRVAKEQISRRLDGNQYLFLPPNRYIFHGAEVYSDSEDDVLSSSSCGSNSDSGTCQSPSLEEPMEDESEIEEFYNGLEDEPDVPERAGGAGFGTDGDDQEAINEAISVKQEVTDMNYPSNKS

[4] = biological target: T4, NAD-dependent protein deacetylase sirtuin-1 (Homo sapiens, UniProt Q96EB6, F273L); experiment: Inhibition of human SIRT1 F273L mutant expressed in Escherichia coli BL21(DE3) using AMC-labeled Arg-His-Lys-Lys(ac) as substrate assessed as inhibition of deacetylation of peptide after 45 mins by Lineweaver-Burke plot method
T4 sequence (Q96EB6 2-747 F273L limits assumed): as the sequence (Q96EB6 2-747 F414A limits assumed) above, with F272L, A413F counted along it

[5] = biological target: T5, NAD-dependent protein deacetylase sirtuin-1 (Homo sapiens, UniProt Q96EB6, I347A); experiment: Inhibition of human SIRT1 I347A mutant expressed in Escherichia coli BL21(DE3) using AMC-labeled Arg-His-Lys-Lys(ac) as substrate assessed as inhibition of deacetylation of peptide after 45 mins by fluorescence assay
T5 sequence (Q96EB6 2-747 I347A limits assumed): as the sequence (Q96EB6 2-747 F414A limits assumed) above, with I346A, A413F counted along it

[6] = biological target: T5, NAD-dependent protein deacetylase sirtuin-1; experiment: Inhibition of human SIRT1 I347A mutant expressed in Escherichia coli BL21(DE3) using AMC-labeled Arg-His-Lys-Lys(ac) as substrate assessed as inhibition of deacetylation of peptide after 45 mins by Lineweaver-Burke plot method
[7] = biological target: T1, NAD-dependent protein deacetylase sirtuin-1; experiment: Inhibition of hexa-His-tagged recombinant human SIRT1 expressed in Escherichia coli BL21(DE3) using AMC-labeled Arg-His-Lys-Lys(ac) as substrate assessed as inhibition of deacetylation of peptide after 45 mins by Lineweaver-Burke plot method
[8] = biological target: T4, NAD-dependent protein deacetylase sirtuin-1; experiment: Inhibition of human SIRT1 F273L mutant expressed in Escherichia coli BL21(DE3) using AMC-labeled Arg-His-Lys-Lys(ac) as substrate assessed as inhibition of deacetylation of peptide after 45 mins by fluorescence assay
[9] = biological target: T3, NAD-dependent protein deacetylase sirtuin-1; experiment: Inhibition of human SIRT1 F414A mutant expressed in Escherichia coli BL21(DE3) using AMC-labeled Arg-His-Lys-Lys(ac) as substrate assessed as inhibition of deacetylation of peptide after 45 mins by Lineweaver-Burke plot method

SMILES	IC50 [1] [µM]	also measured
c1coc(-c2nnc3sc(-c4ccncc4)nn23)c1	49.8	
COc1ccccc1OCc1nn2c(-c3ccco3)nnc2s1	51.2	
COc1ccc(OCc2nn3c(-c4ccco4)nnc3s2)cc1	41	
c1coc(-c2nnc3sc(-c4cccs4)nn23)c1	88.6	
CCC(Oc1ccccc1)c1nn2c(-c3ccco3)nnc2s1 (stereo not drawn)	> 100	
Fc1ccc(-c2ccc(-c3nn4c(-c5ccco5)nnc4s3)o2)cc1	> 100	
c1cncc(-c2nn3c(-c4ccco4)nnc3s2)c1	78.8	
c1ccc(OCc2nn3c(-c4ccco4)nnc3s2)cc1	61.3	
Cc1cccc(-c2nn3c(-c4ccco4)nnc3s2)c1	7.5	
CCC(c1ccccc1)c1nn2c(-c3ccco3)nnc2s1 (stereo not drawn)	96.2	
CCOc1ccccc1OCc1nn2c(-c3ccco3)nnc2s1	13.7	
COc1ccc(-c2nn3c(-c4ccco4)nnc3s2)cc1OC	24.8	
Cc1ccc(OCc2nn3c(-c4ccco4)nnc3s2)cc1	29.3	
c1ccc(CCCc2nn3c(-c4ccco4)nnc3s2)cc1	12.2	
Clc1ccc(Cc2nn3c(-c4ccco4)nnc3s2)cc1	78	
COc1ccc(Cc2nn3c(-c4ccco4)nnc3s2)cc1OC	4.1	inhibition [2]: Dose-dependent effect
COc1cccc(OCc2nn3c(-c4ccco4)nnc3s2)c1	48.4	
CCOc1cccc(-c2nn3c(-c4ccco4)nnc3s2)c1	19	
C=CCOc1ccc(-c2nn3c(-c4ccco4)nnc3s2)cc1	29.5	

The remaining molecules from weak to strong by IC50 [1], led by results:

IC50 [1] [µM]	SMILES	also measured
76.9	COc1ccc(Cc2nn3c(-c4ccco4)nnc3s2)cc1	
75.3	Cc1cccc(OCc2nn3c(-c4ccco4)nnc3s2)c1	
67.9	CC(Oc1ccccc1)c1nn2c(-c3ccco3)nnc2s1 (stereo not drawn)	
67	c1coc(-c2nnc3sc(Cc4ccc5c(c4)OCCO5)nn23)c1	
66.6	c1coc(-c2nnc3sc(-c4cnccn4)nn23)c1	
65.7	CCOc1cc(-c2nn3c(-c4ccco4)nnc3s2)cc(OCC)c1OCC	
47.4	c1ccc(CCc2nn3c(-c4ccco4)nnc3s2)cc1	
46.7	COc1ccc(-c2nn3c(-c4ccco4)nnc3s2)cc1	
45.2	c1coc(-c2nnc3sc(-c4ccc5c(c4)OCO5)nn23)c1	
40.7	c1coc(-c2nnc3sc(-c4ccc5c(c4)OCCO5)nn23)c1	
37.9	c1ccc(Cc2nn3c(-c4ccco4)nnc3s2)cc1	
35.6	COc1cc(-c2nn3c(-c4ccco4)nnc3s2)cc(OC)c1OC	
31.3	CCOc1ccc(-c2nn3c(-c4ccco4)nnc3s2)cc1	
28.7	Cc1ccc(OCc2nn3c(-c4ccco4)nnc3s2)cc1C	
27.6	c1ccc(-c2nn3c(-c4ccco4)nnc3s2)cc1	
27.4	Cc1ccc(-c2nn3c(-c4ccco4)nnc3s2)cc1	
23.6	CCOc1ccccc1-c1nn2c(-c3ccco3)nnc2s1	
22	c1coc(-c2nn3c(-c4ccco4)nnc3s2)c1	
20.6	c1coc(-c2nnc3sc(-c4cc5ccccc5o4)nn23)c1	
20.3	COc1cccc(-c2nn3c(-c4ccco4)nnc3s2)c1	
18.8	C=CCOc1cccc(-c2nn3c(-c4ccco4)nnc3s2)c1	
18.7	Cc1ccccc1OCc1nn2c(-c3ccco3)nnc2s1	
8.9	c1coc(-c2nnc3sc(C4COc5ccccc5O4)nn23)c1 (stereo not drawn)	inhibition [2]: Dose-dependent effect
3.5	c1ccc(-c2nn3c(-c4ccco4)nnc3s2)nc1	IC50 [3]: 44 µM; Ki [4]: 58.9 µM; IC50 [5]: 87.9 µM; Ki [6]: 39.1 µM; Ki [7]: 0.6 µM; IC50 [8]: 133 µM; inhibition [2]: Dose-dependent effect; Ki [9]: 24.1 µM
